Test results published in PubChem BioAssay (NCI).
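Dose response: 5 concentrations. Exposure: 48 h. Format: 96-well plates. Endpoint: linear interpolation; highest concentration if not reached. GI50 is the concentration that inhibits growth by half. TGI: concentration producing complete growth inhibition.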

Columns and labels:
Experiment in all cases: inhibition of tumour cell growth, NCI panel, 48 h
[1] = system: BT-549 breast
[2] = system: SNB-75 CNS
[3] = system: CCRF-CEM leukemia
[4] = system: SK-MEL-2 melanoma
[5] = system: SF-268 CNS
[6] = system: UACC-257 melanoma
[7] = system: LOX IMVI melanoma
[8] = system: SN12C renal
[9] = system: HL-60(TB) leukemia
[10] = system: EKVX NSCLC
[11] = system: 786-0 renal
[12] = system: K-562 leukemia
[13] = system: PC-3 prostate
[14] = system: RXF 393 renal
[15] = system: MALME-3M melanoma
[16] = system: MOLT-4 leukemia
[17] = system: COLO 205 colon
[18] = system: HCT-15 colon
[19] = system: M14 melanoma
[20] = system: SK-MEL-28 melanoma
[21] = system: U251 CNS
[22] = system: SNB-19 CNS
[23] = system: OVCAR-3 ovarian
[24] = system: SR leukemia
[25] = system: SF-295 CNS
[26] = system: UACC-62 melanoma
[27] = system: HCC-2998 colon
[28] = system: OVCAR-4 ovarian
[29] = system: MDA-MB-435
[30] = system: OVCAR-5 ovarian
[31] = system: RPMI-8226 leukemia
[32] = system: OVCAR-8 ovarian
[33] = system: CAKI-1 renal
[34] = system: A549 NSCLC
[35] = system: ACHN renal
[36] = system: HS 578T breast
[37] = system: DU-145 prostate
[38] = system: MDA-MB-231 breast
[39] = system: SK-MEL-5 melanoma
[40] = system: HT29 colon
[41] = system: NCI-H226 lung
[42] = system: UO-31 renal
[43] = system: MCF7 breast
[44] = system: IGROV1 ovarian
[45] = system: HOP-92 NSCLC
[46] = system: SW-620 colon
[47] = system: KM12 colon
[48] = system: NCI-H460 lung
[49] = system: TK-10 renal
[50] = system: SK-OV-3 ovarian
[51] = system: HCT-116 colon
[52] = system: NCI-H522 lung
[53] = system: SF-539 CNS
[54] = system: T-47D breast
[55] = system: HOP-62 NSCLC
[56] = system: NCI/ADR-RES ovarian
[57] = system: NCI-H23 lung

`CCCCNC(=O)Oc1ccc(/C(=C(/CC)Cc2ccccc2)c2ccc(OCCN3CCCCCC3)cc2)cc1` showed a GI50 [1] of 46.5 µM, a TGI [1] of over 100 µM and a GI50 [2] of over 100 µM. It also gave a TGI [2] of over 100 µM, a GI50 [3] of 31.9 µM and a TGI [3] of 93.5 µM. The GI50 [4] was 71.9 µM, the TGI [4] was over 100 µM and the GI50 [5] was 59.8 µM. The TGI [5] was over 100 µM, the GI50 [6] was 19.8 µM and the TGI [6] was 40.2 µM. It also gave a GI50 [7] of 17 µM, a TGI [7] of 30.7 µM and a GI50 [8] of 29.6 µM. It also gave a TGI [8] of 83.6 µM, a GI50 [9] of 16.5 µM and a TGI [9] of 40 µM. The GI50 [10] was 76.8 µM, the TGI [10] was over 100 µM and the GI50 [11] was 16.2 µM. For the same compound, the TGI [11] was 30 µM, the GI50 [12] was 16.7 µM and the TGI [12] was 46.9 µM. It also gave a GI50 [13] of 33.2 µM, a TGI [13] of over 100 µM and a GI50 [14] of 17.3 µM. It also gave a TGI [14] of 32.1 µM, a GI50 [15] of 18.2 µM and a TGI [15] of 35.3 µM. The GI50 [16] was 21.8 µM, the TGI [16] was 72.7 µM and the GI50 [17] was 20.6 µM. It also gave a TGI [17] of 39.7 µM, a GI50 [18] of 16.4 µM and a TGI [18] of 36.3 µM. It also gave a GI50 [19] of 17.7 µM, a TGI [19] of 33.9 µM and a GI50 [20] of 16.5 µM. It also gave a TGI [20] of 33.1 µM, a GI50 [21] of 18.7 µM and a TGI [21] of 35 µM. It also gave a GI50 [22] of 39.8 µM, a TGI [22] of over 100 µM and a GI50 [23] of 19.9 µM. For the same compound, the TGI [23] was 42.6 µM, the GI50 [24] was 14.6 µM and the TGI [24] was 41.1 µM. For the same compound, the GI50 [25] was 18.3 µM, the TGI [25] was 38.4 µM and the GI50 [26] was 19.6 µM. For the same compound, the TGI [26] was 38 µM, the GI50 [27] was 18.8 µM and the TGI [27] was 38.8 µM. For the same compound, the GI50 [28] was 19.2 µM, the TGI [28] was 51.3 µM and the GI50 [29] was 17.2 µM. The TGI [29] was 34.3 µM, the GI50 [30] was 96.3 µM and the TGI [30] was over 100 µM. For the same compound, the GI50 [31] was 24 µM, the TGI [31] was 52.8 µM and the GI50 [32] was 19.1 µM. It also gave a TGI [32] of 36.6 µM, a GI50 [33] of 19.3 µM and a TGI [33] of 44.7 µM. It also gave a GI50 [34] of 32.4 µM, a TGI [34] of over 100 µM and a GI50 [35] of 18.6 µM. The TGI [35] was 41.6 µM, the GI50 [36] was 19.7 µM and the TGI [36] was 44.1 µM. It also gave a GI50 [37] of 41.7 µM, a TGI [37] of over 100 µM and a GI50 [38] of 19.2 µM. It also gave a TGI [38] of 36.6 µM, a GI50 [39] of 19.9 µM and a TGI [39] of 39.1 µM. It also gave a GI50 [40] of 18.1 µM, a TGI [40] of 36.3 µM and a GI50 [41] of over 100 µM. It also gave a TGI [41] of over 100 µM, a GI50 [42] of 18.9 µM and a TGI [42] of 46.3 µM. The GI50 [43] was 6.32 µM, the TGI [43] was 59.6 µM and the GI50 [44] was 30.5 µM. For the same compound, the TGI [44] was over 100 µM, the GI50 [45] was 19 µM and the TGI [45] was 47.2 µM. The GI50 [46] was 20.5 µM, the TGI [46] was 42.5 µM and the GI50 [47] was 31.7 µM. The TGI [47] was over 100 µM, the GI50 [48] was 18.6 µM and the TGI [48] was 33.8 µM. For the same compound, the GI50 [49] was 26.7 µM, the TGI [49] was 90.5 µM and the GI50 [50] was over 100 µM. The TGI [50] was over 100 µM, the GI50 [51] was 15.6 µM and the TGI [51] was 29 µM. It also gave a GI50 [52] of 20 µM, a TGI [52] of 43.8 µM and a GI50 [53] of 17 µM. For the same compound, the TGI [53] was 31.3 µM, the GI50 [54] was 14.5 µM and the TGI [54] was 36.9 µM. It also gave a GI50 [55] of 70.8 µM, a TGI [55] of over 100 µM and a GI50 [56] of 42.1 µM. For the same compound, the TGI [56] was over 100 µM, the GI50 [57] was 59.1 µM and the TGI [57] was over 100 µM.
